The results in this text go back to ChEMBL document CHEMBL1140761 (Bioorg Med Chem, 2008).

As a reminder, the Ki is a dissociation constant, usually derived from enzyme kinetics or from competition with a known ligand. By EC50 is commonly meant the midpoint of the concentration-response curve.

The target of test [1] is T1, A1 adenosine receptor (Sus scrofa, UniProt Q4VQ11).
T1 sequence (Q4VQ11 whole entry): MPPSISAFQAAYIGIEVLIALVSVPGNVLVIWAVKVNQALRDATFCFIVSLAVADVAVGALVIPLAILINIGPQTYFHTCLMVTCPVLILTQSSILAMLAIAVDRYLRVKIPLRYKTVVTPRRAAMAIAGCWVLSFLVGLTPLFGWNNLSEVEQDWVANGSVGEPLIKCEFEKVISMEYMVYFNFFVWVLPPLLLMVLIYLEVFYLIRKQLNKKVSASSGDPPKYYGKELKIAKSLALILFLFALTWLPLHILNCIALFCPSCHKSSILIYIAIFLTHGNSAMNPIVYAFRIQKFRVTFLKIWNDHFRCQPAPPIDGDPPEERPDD
The format is cell membranes.

The next test concerns the target Uncharacterized protein (Bos taurus, UniProt E1BKU0). Description: Displacement of [3H]CGS21680 from […] in bovine striatum membrane. The class given is cell membranes.
The target of test [2] is T2, Adenosine receptor A1 (Bos taurus, UniProt P28190).
T2 sequence (P28190 whole entry): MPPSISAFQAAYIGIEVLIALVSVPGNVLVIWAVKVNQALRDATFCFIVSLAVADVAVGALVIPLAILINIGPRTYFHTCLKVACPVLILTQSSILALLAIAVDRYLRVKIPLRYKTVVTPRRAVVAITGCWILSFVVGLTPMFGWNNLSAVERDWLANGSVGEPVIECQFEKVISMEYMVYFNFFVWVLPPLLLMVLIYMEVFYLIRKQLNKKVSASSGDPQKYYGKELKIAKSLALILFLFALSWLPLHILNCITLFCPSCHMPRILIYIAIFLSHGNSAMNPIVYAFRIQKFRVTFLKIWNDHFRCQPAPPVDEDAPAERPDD
The format is cell membranes. The conditions noted are these: read-out: Ki.

Test [3] has as its target T1, A1 adenosine receptor. The test is described as follows: Agonist activity at adenosine A1 receptor in pig cortical membrane assessed as stimulation of GTPgammaS binding. The format is functional, cell membranes. In general terms: GTPγS resists hydrolysis and so accumulates on activated G proteins.
In a further test the target is Adenosine receptor A2a (Homo sapiens, UniProt P29274). Description: Displacement of [3H]NECA from human recombinant adenosine A2A receptor expressed in CHO cells. The format is cell-based. Background: Loss of bound radioactivity is the signal in a displacement assay; it reports binding, not function.
Sequence of Adenosine receptor A2a (P29274 whole entry): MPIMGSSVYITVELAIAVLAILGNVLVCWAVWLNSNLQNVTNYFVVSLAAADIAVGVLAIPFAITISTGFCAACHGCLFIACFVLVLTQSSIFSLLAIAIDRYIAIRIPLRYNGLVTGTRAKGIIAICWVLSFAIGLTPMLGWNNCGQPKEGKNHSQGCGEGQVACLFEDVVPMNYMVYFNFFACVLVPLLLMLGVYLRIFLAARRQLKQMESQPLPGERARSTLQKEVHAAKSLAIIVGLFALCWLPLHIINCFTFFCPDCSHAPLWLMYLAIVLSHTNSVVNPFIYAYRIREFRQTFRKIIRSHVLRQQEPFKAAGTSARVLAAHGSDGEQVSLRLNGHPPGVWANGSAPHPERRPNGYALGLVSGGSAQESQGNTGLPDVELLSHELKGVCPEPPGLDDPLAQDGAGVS
For test [4], the target named is T3, A1 adenosine receptor (Sus scrofa) (UniProt Q4VQ11).
T3 sequence (whole entry): T1 sequence (Q4VQ11 whole entry)
The test is described as follows: Agonist activity at adenosine A1 receptor in pig cortical membrane assessed as stimulation of GTPgammaS binding relative to CPA. The format is functional, cell membranes.

In test [5] the target is T4, Adenosine receptor A1 (Homo sapiens, UniProt P30542).
T4 sequence (P30542 whole entry): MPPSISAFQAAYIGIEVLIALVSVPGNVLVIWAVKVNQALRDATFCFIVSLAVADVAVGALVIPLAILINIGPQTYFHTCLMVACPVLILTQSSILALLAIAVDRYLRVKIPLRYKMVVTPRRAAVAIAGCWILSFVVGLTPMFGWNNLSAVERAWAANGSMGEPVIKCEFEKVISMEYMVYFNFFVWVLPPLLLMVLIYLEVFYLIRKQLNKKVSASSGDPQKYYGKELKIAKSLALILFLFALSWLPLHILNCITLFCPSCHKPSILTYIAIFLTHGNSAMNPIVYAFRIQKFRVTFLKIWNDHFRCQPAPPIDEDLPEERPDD
Description: Displacement of [3H]CCPA from human recombinant adenosine A1 receptor expressed in CHO cells. The format is cell-based.

Another test addresses T5, Adenosine receptor A3 (Homo sapiens, UniProt P0DMS8).
T5 sequence (P0DMS8 whole entry): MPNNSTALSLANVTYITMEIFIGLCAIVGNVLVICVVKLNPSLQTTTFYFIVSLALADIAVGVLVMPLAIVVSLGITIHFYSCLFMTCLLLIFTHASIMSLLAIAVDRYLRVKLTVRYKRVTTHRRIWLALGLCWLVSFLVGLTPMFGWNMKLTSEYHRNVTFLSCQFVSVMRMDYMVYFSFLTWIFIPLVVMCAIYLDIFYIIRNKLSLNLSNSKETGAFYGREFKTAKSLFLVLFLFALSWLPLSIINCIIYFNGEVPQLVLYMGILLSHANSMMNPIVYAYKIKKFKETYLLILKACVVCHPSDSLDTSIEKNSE
The test is described as follows: Displacement of [3H]NECA from human recombinant adenosine A3 receptor expressed in CHO cells. The class given is cell-based.

The species entered for test [6] is Homo sapiens. Description: Selectivity for human adenosine A1 receptor over human adenosine A2A receptor.
Test [7] deals with Adenosine receptors; A1 & A3 (Homo sapiens) (UniProt P30542+P0DMS8). Description: Selectivity for human adenosine A1 receptor over human adenosine A3 receptor.
For test [8], the species on record is Homo sapiens. The test is described as follows: Selectivity for human adenosine A3 receptor over human adenosine A2A receptor.
The next test deals with Adenosine receptor A2 (Sus scrofa, UniProt K9IW67). The test is described as follows: Displacement of [3H]CGS21680 from […] in pig striatum membrane. The format is cell membranes.

Sequence of Uncharacterized protein (E1BKU0 whole entry): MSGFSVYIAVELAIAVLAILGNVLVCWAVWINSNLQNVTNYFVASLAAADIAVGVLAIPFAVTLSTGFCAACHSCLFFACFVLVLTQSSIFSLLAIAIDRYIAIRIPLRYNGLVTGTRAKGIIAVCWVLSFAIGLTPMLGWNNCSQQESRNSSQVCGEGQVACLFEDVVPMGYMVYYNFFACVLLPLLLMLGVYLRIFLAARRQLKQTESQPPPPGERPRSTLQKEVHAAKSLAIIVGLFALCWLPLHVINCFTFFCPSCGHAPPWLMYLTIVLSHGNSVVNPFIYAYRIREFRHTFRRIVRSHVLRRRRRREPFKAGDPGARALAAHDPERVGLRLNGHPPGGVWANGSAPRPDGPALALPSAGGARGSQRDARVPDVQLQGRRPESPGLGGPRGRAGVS

With `OC[C@H]1O[C@@H](n2cnc3c(N[C@@H]4CCOC4)nc(Cl)nc32)[C@H](O)[C@@H]1O`, the Ki on A1 adenosine receptor [1] came out at 6.6 nM; at Uncharacterized protein, 4690 nM; on Adenosine receptor A1 [2], 1.7 nM; at Adenosine receptor A2a it was 4590 nM; on Adenosine receptor A1 [5], 1.87 nM; on Adenosine receptor A3, 34600 nM. In addition, the EC50 at A1 adenosine receptor [3] came out at 18.3 nM. The Efficacy in test [4] came out at 97%. The Ratio Ki in the test filed under Homo sapiens [6] is 2460; in test [7], 113; in the test filed under Homo sapiens [8], 21.7.
On to `CNC(=S)OC[C@H]1O[C@@H](n2cnc3c(NC4CCCC4)nc(Cl)nc32)[C@](C)(O)[C@@H]1O`, for which the Ki came out at 13 nM on A1 adenosine receptor [1]; 15000 nM on Uncharacterized protein; 9200 nM at Adenosine receptor A2; 66 nM on Adenosine receptor A1 [2]; 8760 nM on Adenosine receptor A2a; 356 nM at Adenosine receptor A1 [5]. In addition, the inhibition constant Ki at Adenosine receptor A3 is over 100000 nM. In addition, at A1 adenosine receptor [3], the EC50 worked out at 326 nM. In test [4], the Efficacy turned out to be 64%. The figures for the Ratio Ki (in the test filed under Homo sapiens [6]; in test [7]; in the test listed under Homo sapiens [8]) were 24.6, 7.9 and 3.1, respectively.
Regarding `C[C@@]1(O)[C@H](O)[C@@H](CO)O[C@H]1n1cnc2c(N[C@@H]3CCOC3)ncnc21`, the Ki on A1 adenosine receptor [1] is 150 nM; on Adenosine receptor A1 [2], 13.6 nM; on Adenosine receptor A2a, over 100000 nM; on Adenosine receptor A1 [5], 21 nM; on Adenosine receptor A3, 35500 nM. Also, the EC50 on A1 adenosine receptor [3] amounted to 3620 nM. Also, in test [4], the Efficacy was found to be 95%. Further, the figures for the Ratio Ki (in the test listed under Homo sapiens [6]; in test [7]; in the test filed under Homo sapiens [8]) were over 4760, 211 and over 22.5, respectively.
`C[C@@]1(O)[C@H](O)[C@@H](CO)O[C@H]1n1cnc2c(N[C@@H]3CCOC3)nc(Cl)nc21`: the Ki on A1 adenosine receptor [1] is 67 nM; at Adenosine receptor A1 [2] it was 13 nM; on Adenosine receptor A2a, over 100000 nM; at Adenosine receptor A1 [5], 15.5 nM; on Adenosine receptor A3 it was 18900 nM. Besides, the EC50 on A1 adenosine receptor [3] was determined as 2760 nM. Besides, the Efficacy in test [4] was determined as 96%. Moreover, the Ratio Ki was over 6450 in the test listed under Homo sapiens [6], 288 in [7] and over 22.4 in the test listed under Homo sapiens [8].
